Where “and” joins values, the source holds several entries; their conditions need not be identical. Identical values can stand only once. Like-named read-outs stand apart in the source and are kept apart here.
System: mtrC-lacZ expression
Assay type: cell-based, Neisseria gonorrhoeae
Details: for β-galactosidase activity, Mean / β-galactosidase activity, single replicate: mtrCDE block (c1-c37), ΔmtrR + mtrR R176E in trans; for β-galactosidase activity, individual replicate / β-galactosidase activity, Miller units (single replicate): mtrR WT in cis; for β-galactosidase activity, individual replicate: single replicate values, second (right) block
[1] = mtrC-lacZ, ΔmtrR + mtrR D171A in trans, 6.25 µM hormone, single replicate
[2] = mtrC-lacZ, ΔmtrR + mtrR D171A in trans, 12.5 µM hormone, single replicate
[3] = mtrC-lacZ, ΔmtrR + mtrR D171A in trans, 25 µM hormone, single replicate
[4] = mtrC-lacZ, ΔmtrR + mtrR D171A in trans, 50 µM hormone, single replicate
[5] = mtrC-lacZ, ΔmtrR + mtrR WT in trans, 6.25 µM hormone, single replicate
[6] = mtrC-lacZ, ΔmtrR + mtrR WT in trans, 12.5 µM hormone, single replicate
[7] = mtrC-lacZ, ΔmtrR + mtrR WT in trans, 25 µM hormone, single replicate
[8] = mtrC-lacZ, ΔmtrR + mtrR WT in trans, 50 µM hormone, single replicate

C[C@]12CC[C@@H]3c4ccc(O)cc4CC[C@H]3[C@@H]1CC[C@@H]2O [β-Estradiol, β-estradiol]
Miller units, Mean (Mean of plate rows 1-4, plate columns 1-6 (first strain), 6.25 µM hormone): 83 Miller units | Miller units, Mean (Mean of plate rows 1-4, plate columns 1-6 (first strain), 12.5 µM hormone): 113 Miller units | Miller units, Mean (Mean of plate rows 1-4, plate columns 1-6 (first strain), 25 µM hormone): 148 Miller units | Miller units, Mean (Mean of plate rows 1-4, plate columns 1-6 (first strain), 50 µM hormone): 162 Miller units | Miller units, Mean (Mean of plate rows 1-4, plate columns 7-12 (second strain), 6.25 µM hormone): 163 Miller units | Miller units, Mean (Mean of plate rows 1-4, plate columns 7-12 (second strain), 12.5 µM hormone): 152 Miller units | Miller units, Mean (Mean of plate rows 1-4, plate columns 7-12 (second strain), 25 µM hormone): 175 Miller units | Miller units, Mean (Mean of plate rows 1-4, plate columns 7-12 (second strain), 50 µM hormone): 160 Miller units | induction of mtrC expression (complemented (MtrR+) strains, increasing hormone): could be induced | induction of mtrC expression (loss of MtrR or MtrR-D171A strain): abrogated | Miller units, Mean (mtrC-lacZ, WT strain, 6.25 µM hormone): 131 Miller units | β-galactosidase activity (Miller units) (mtrC-lacZ, WT strain, 6.25 µM hormone, single replicate): 164 Miller units and 114 Miller units and 120 Miller units | Miller units, Mean (mtrC-lacZ, WT strain, 12.5 µM hormone): 148 Miller units | β-galactosidase activity (Miller units) (mtrC-lacZ, WT strain, 12.5 µM hormone, single replicate): 178 Miller units and 161 Miller units and 132 Miller units | Miller units, Mean (mtrC-lacZ, WT strain, 25 µM hormone): 177 Miller units | β-galactosidase activity (Miller units) (mtrC-lacZ, WT strain, 25 µM hormone, single replicate): 160 Miller units and 189 Miller units | Miller units, Mean (mtrC-lacZ, WT strain, 50 µM hormone): 224 Miller units | β-galactosidase activity (Miller units) (mtrC-lacZ, WT strain, 50 µM hormone, single replicate): 242 Miller units and 240 Miller units and 211 Miller units | Miller units, Mean (mtrC-lacZ, WT, 6.25 µM hormone): 131 Miller units | Miller units (mtrC-lacZ, WT, 6.25 µM hormone, single replicate (plate data)): 164 Miller units and 114 Miller units and 128 Miller units and 120 Miller units | Miller units, Mean (mtrC-lacZ, WT, 12.5 µM hormone): 148 Miller units | Miller units (mtrC-lacZ, WT, 12.5 µM hormone, single replicate (plate data)): 178 Miller units and 161 Miller units and 120 Miller units and 132 Miller units | Miller units, Mean (mtrC-lacZ, WT, 25 µM hormone): 177 Miller units | Miller units (mtrC-lacZ, WT, 25 µM hormone, single replicate (plate data)): 160 Miller units and 176 Miller units and 189 Miller units | Miller units, Mean (mtrC-lacZ, WT, 50 µM hormone): 224 Miller units | Miller units (mtrC-lacZ, WT, 50 µM hormone, single replicate (plate data)): 242 Miller units and 240 Miller units and 203 Miller units and 211 Miller units | Miller units, Mean (mtrC-lacZ, ΔmtrR + mtrR D171A in trans, 6.25 µM hormone): 148.9 Miller units | Miller units [1]: 158 Miller units and 155 Miller units | β-galactosidase activity (Miller units) [1]: 155 Miller units and 147 Miller units and 135 Miller units | Miller units, Mean (mtrC-lacZ, ΔmtrR + mtrR D171A in trans, 12.5 µM hormone): 157.2 Miller units | Miller units [2]: 167 Miller units and 147 Miller units | β-galactosidase activity (Miller units) [2]: 147 Miller units and 195 Miller units and 119 Miller units | Miller units, Mean (mtrC-lacZ, ΔmtrR + mtrR D171A in trans, 25 µM hormone): 167.0 Miller units | Miller units [3]: 203 Miller units and 162 Miller units | β-galactosidase activity (Miller units) [3]: 162 Miller units and 132 Miller units and 171 Miller units | Miller units, Mean (mtrC-lacZ, ΔmtrR + mtrR D171A in trans, 50 µM hormone): 162.7 Miller units | Miller units [4]: 193 Miller units | β-galactosidase activity (Miller units) [4]: 188 Miller units and 124 Miller units and 146 Miller units | Miller units, Mean (mtrC-lacZ, ΔmtrR + mtrR WT in trans, 6.25 µM hormone): 116 Miller units | Miller units [5]: 106 Miller units and 141 Miller units and 104 Miller units and 116 Miller units | β-galactosidase activity (Miller units) [5]: 106 Miller units and 141 Miller units and 104 Miller units and 116 Miller units | Miller units, Mean (mtrC-lacZ, ΔmtrR + mtrR WT in trans, 12.5 µM hormone): 113 Miller units | Miller units [6]: 119 Miller units and 115 Miller units and 110 Miller units | β-galactosidase activity (Miller units) [6]: 119 Miller units and 115 Miller units and 110 Miller units | Miller units, Mean (mtrC-lacZ, ΔmtrR + mtrR WT in trans, 25 µM hormone): 138 Miller units | Miller units [7]: 133 Miller units and 147 Miller units and 127 Miller units and 144 Miller units | β-galactosidase activity (Miller units) [7]: 133 Miller units and 147 Miller units and 127 Miller units and 144 Miller units | Miller units, Mean (mtrC-lacZ, ΔmtrR + mtrR WT in trans, 50 µM hormone): 158 Miller units | Miller units [8]: 176 Miller units and 161 Miller units and 132 Miller units and 164 Miller units | β-galactosidase activity (Miller units) [8]: 176 Miller units and 161 Miller units and 132 Miller units and 164 Miller units | Miller units, Mean (mtrC-lacZ, ΔmtrR strain, 6.25 µM hormone): 210 Miller units | β-galactosidase activity (Miller units) (mtrC-lacZ, ΔmtrR strain, 6.25 µM hormone, single replicate): 187 Miller units and 203 Miller units and 200 Miller units | Miller units, Mean (mtrC-lacZ, ΔmtrR strain, 12.5 µM hormone): 218 Miller units | β-galactosidase activity (Miller units) (mtrC-lacZ, ΔmtrR strain, 12.5 µM hormone, single replicate): 197 Miller units and 237 Miller units and 209 Miller units | Miller units, Mean (mtrC-lacZ, ΔmtrR strain, 25 µM hormone): 243 Miller units | β-galactosidase activity (Miller units) (mtrC-lacZ, ΔmtrR strain, 25 µM hormone, single replicate): 261 Miller units and 223 Miller units and 202 Miller units | Miller units, Mean (mtrC-lacZ, ΔmtrR strain, 50 µM hormone): 255 Miller units | β-galactosidase activity (Miller units) (mtrC-lacZ, ΔmtrR strain, 50 µM hormone, single replicate): 220 Miller units and 317 Miller units | Miller units, Mean (mtrC-lacZ, ΔmtrR, 6.25 µM hormone): 210 Miller units | Miller units (mtrC-lacZ, ΔmtrR, 6.25 µM hormone, single replicate (plate data)): 203 Miller units and 200 Miller units and 187 Miller units and 250 Miller units | Miller units, Mean (mtrC-lacZ, ΔmtrR, 12.5 µM hormone): 218 Miller units | Miller units (mtrC-lacZ, ΔmtrR, 12.5 µM hormone, single replicate (plate data)): 237 Miller units and 209 Miller units and 197 Miller units and 228 Miller units | Miller units, Mean (mtrC-lacZ, ΔmtrR, 25 µM hormone): 243 Miller units | Miller units (mtrC-lacZ, ΔmtrR, 25 µM hormone, single replicate (plate data)): 223 Miller units and 202 Miller units and 261 Miller units and 287 Miller units | Miller units, Mean (mtrC-lacZ, ΔmtrR, 50 µM hormone): 255 Miller units | Miller units (mtrC-lacZ, ΔmtrR, 50 µM hormone, single replicate (plate data)): 317 Miller units and 220 Miller units and 261 Miller units | β-galactosidase activity, Mean (6.25 µM): 194 Miller units | β-galactosidase activity, single replicate (6.25 µM): 207 Miller units and 196 Miller units and 188 Miller units | β-galactosidase activity, Mean (12.5 µM): 205 Miller units | β-galactosidase activity, single replicate (12.5 µM): 258 Miller units and 180 Miller units and 177 Miller units and 206 Miller units | β-galactosidase activity, Mean (25 µM): 197 Miller units | β-galactosidase activity, single replicate (25 µM): 241 Miller units and 190 Miller units and 188 Miller units and 169 Miller units | β-galactosidase activity, Mean (50 µM): 269 Miller units | β-galactosidase activity, single replicate (50 µM): 316 Miller units and 254 Miller units and 275 Miller units and 231 Miller units | β-galactosidase activity, individual replicate (6.25 µM hormone): 54 Miller units and 39 Miller units | β-galactosidase activity, Miller units (single replicate) (6.25 µM, first data set (c15-c36)): 147 Miller units and 157 Miller units and 114 Miller units and 129 Miller units | β-galactosidase activity, Miller units (single replicate) (6.25 µM, second data set (c53-c74)): 43 Miller units and 41 Miller units | β-galactosidase activity, individual replicate (12.5 µM hormone): 72 Miller units and 56 Miller units | β-galactosidase activity, Miller units (single replicate) (12.5 µM, first data set (c15-c36)): 160 Miller units and 155 Miller units and 156 Miller units and 149 Miller units | β-galactosidase activity, Miller units (single replicate) (12.5 µM, second data set (c53-c74)): 45 Miller units and 43 Miller units | β-galactosidase activity, individual replicate (25 µM hormone): 63 Miller units | β-galactosidase activity, Miller units (single replicate) (25 µM, first data set (c15-c36)): 152 Miller units and 181 Miller units and 159 Miller units and 157 Miller units | β-galactosidase activity, Miller units (single replicate) (25 µM, second data set (c53-c74)): 63 Miller units and 52 Miller units
